Assay results taken from patent US4971969A, “Pharmaceutical composition containing 1-(mono- or bis(trifluoromethyl)-2-pyridinyl)piperazines” (priority 1988, dated 1990).
Read-outs that look alike come from different tables or passages of the source.

Key:
5HT1B receptors = target: T1, 5HT1B receptors (Rattus norvegicus, UniProt P28564); assay: Binding test: displacement of [^3 H]-5HT from membranes of the rat striatum (5HT1B)
T1 construct: membranes of the rat striatum; from tissue; host or cells: rat striatum membranes
Procedure: (§1) This test is carried out according to the protocol of PEROUTKA, S.J. ["Selective labelling of 5-HT1A and 5HT1B binding sites in bovine brain" BRAIN RESEARCH 344, p. 167-171 (1985)]. In this test, the affinity for 5HT1A receptors is determined by the Capacity of the compounds to displace [^3 H]-8-OH-DPAT from the membranes of the rat hippocampus; similarly, the affinity for 5HT1B receptors is determined by the capacity of the compounds to displace [^3 H]-5HT from the membranes of the rat striatum.
(§2) The results recorded in Table II below show the pKi values calculated according to the abovementioned protocol.

5HT1B = assay: Penile erection test (5HT1B agonist potential); type: in vivo; conditions: rats; for minimal effective dose: Rattus norvegicus, sc, administered subcutaneously, read-out: ERECTION OF THE PENIS, minimum dose which leads to an erection of the penis, subcutaneous; for ERECTION OF THE PENIS, activity when administered orally: administered orally (PO)
Excerpt: This test, carried out according to the protocol of BERENDSEN H.H.G. and BROEKKAMP C.L.E. ["Drug induced penile erections in rats: indication of serotonin 1B receptor mediation--EUROPEAN J. PHARMACOL. 135, 279-287 (1987")]enables the 5HT1B agonist potentials of the various compounds to be assessed.
The results recorded in Table II below show the minimum dose in mg.kg^-1 administered subcutaneously which leads to an erection of the penis in rats, as well as the activity when administered orally.

5HT1A receptors = target: T2, 5HT1A receptors (Rattus norvegicus, UniProt P19327); assay: Binding test: displacement of [^3 H]-8-OH-DPAT from membranes of the rat hippocampus (5HT1A)
T2 construct: membranes of the rat hippocampus; from tissue; host or cells: rat hippocampus membranes
T2 sequence (P19327 1-422): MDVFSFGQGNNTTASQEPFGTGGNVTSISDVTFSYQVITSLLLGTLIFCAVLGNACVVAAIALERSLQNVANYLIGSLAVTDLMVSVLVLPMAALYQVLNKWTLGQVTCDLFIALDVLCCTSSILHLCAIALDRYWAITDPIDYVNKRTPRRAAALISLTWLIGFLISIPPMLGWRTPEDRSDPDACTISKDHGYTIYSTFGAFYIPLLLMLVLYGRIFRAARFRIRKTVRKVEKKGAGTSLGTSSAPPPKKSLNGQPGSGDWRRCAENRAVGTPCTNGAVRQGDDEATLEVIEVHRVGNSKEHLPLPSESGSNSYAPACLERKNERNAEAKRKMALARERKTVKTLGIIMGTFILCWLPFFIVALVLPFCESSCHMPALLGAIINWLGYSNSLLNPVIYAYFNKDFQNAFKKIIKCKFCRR
Procedure: as §1, §2

[1] = rat striatum membranes, [^3 H]-5HT, read-out: BINDING pKi 5HT1B (converted)
[2] = rat hippocampus membranes, [^3 H]-8-OH-DPAT, read-out: BINDING pKi 5HT1A (converted)

T1 sequence (P28564 whole entry): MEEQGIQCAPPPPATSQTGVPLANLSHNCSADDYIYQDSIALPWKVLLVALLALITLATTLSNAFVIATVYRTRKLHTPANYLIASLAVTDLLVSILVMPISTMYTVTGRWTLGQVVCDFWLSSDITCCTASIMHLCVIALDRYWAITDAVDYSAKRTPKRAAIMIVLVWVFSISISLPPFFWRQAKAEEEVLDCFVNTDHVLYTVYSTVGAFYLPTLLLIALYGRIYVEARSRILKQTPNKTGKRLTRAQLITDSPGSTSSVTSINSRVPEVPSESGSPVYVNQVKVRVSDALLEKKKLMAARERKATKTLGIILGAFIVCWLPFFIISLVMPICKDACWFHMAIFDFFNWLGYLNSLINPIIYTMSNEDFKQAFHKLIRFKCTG

Compound | Ki (5HT1B receptors; [1]) | minimal effective dose (5HT1B) | ERECTION OF THE PENIS, activity when administered orally (5HT1B) | Ki (5HT1A receptors; [2]) | Ki (5HT1B receptors) | Ki (5HT1A receptors)
FC(F)(F)c1ccc(N2CCNCC2)nc1 [Compound 1, 1-(5-trifluoromethyl-2-pyridinyl)piperazine] | 501 nM | 1 mg/kg | > 46 mg/kg | > 10000 nM | – | –
FC(F)(F)c1cnc(N2CCNCC2)c(Cl)c1 [Compound 5, 1-(3-chloro-5-trifluoromethyl-2-pyridinyl)piperazine] | 501 nM | 4.6 mg/kg | 10 mg/kg | 3980 nM | – | –
FC(F)(F)c1ccc(N2CCNCC2)nc1Cl [Compound 3] | – | 0.46 mg/kg | 4.6 mg/kg | – | 100 nM | 2510 nM
FC(F)(F)c1ccnc(N2CCNCC2)c1 [Compound 2, 1-(4-trifluoromethyl-2-pyridinyl)piperazine] | 126 nM | 1 mg/kg | 2.2 mg/kg | 2510 nM | – | –
FC(F)(F)c1cnc(N2CCNCC2)cc1C(F)(F)F [Compound 4, 1-[4,5-bis(trifluoromethyl)-2-pyridinyl]piperazine] | 398 nM | 10 mg/kg | 2.2 mg/kg | 79400 nM | – | –
